Laboratory results taken from ChEMBL document CHEMBL3507680, “University of Dundee, Gates Library screen for HepG2 cell viability”.

Assay: Human HepG2 cell viability assay in 384 well format
Assay type: toxicity, cell-based
Set-up: dose 125 nL, time 70.5 hour; concentration not given beside the values
Settings: HepG2 cells, read-out: Inhibition

SMILES: O=C(COC1CCCC1)NCCCn1nc2ccccn2c1=O
- cytotoxicity at 70.5 h: -16.2%

SMILES: O=C(NCC1CC1)C1CSCN1S(=O)(=O)c1ccccc1F (stereo unspecified)
- cytotoxicity at 70.5 h: 4.99%

SMILES: N#Cc1ccc(N2CCC(NS(=O)(=O)c3cccs3)CC2)c(F)c1
- cytotoxicity at 70.5 h: -9.83%

SMILES: Cc1cccc(S(=O)(=O)N2CSCC2C(=O)NCC2CC2)c1 (stereo unspecified)
- cytotoxicity at 70.5 h: -2.32%

SMILES: Cc1nc(C)n(CC2CCCN2CC(=O)NCCc2cccs2)n1 (stereo unspecified)
- cytotoxicity at 70.5 h: -15.5%

SMILES: Cc1cc(N2CCC(N(C)C(=O)c3sccc3C)CC2)nc(C)n1
- cytotoxicity at 70.5 h: -4.75%

SMILES: O=C(CCc1ccc(Cl)s1)N1CCCC(N2CCNC2=O)C1 (stereo unspecified)
- cytotoxicity at 70.5 h: -17.9%

SMILES: Cc1cc(C)n(CC2CCCCN2C(=O)c2ccc3[nH]nnc3c2)n1 (stereo unspecified)
- cytotoxicity at 70.5 h: -17.7%

SMILES: Cc1cnn(CC2CCCN2C(=O)c2ccc3c(c2)nnn3C)c1 (stereo unspecified)
- cytotoxicity at 70.5 h: -6.19%

SMILES: CSCC(CCO)NC(=O)Nc1cccc(Br)c1C (stereo unspecified)
- cytotoxicity at 70.5 h: -21.2%

SMILES: O=C(NCCCn1nc2ccccn2c1=O)NCCC1CCC1
- cytotoxicity at 70.5 h: -3.21%

SMILES: Cc1csc(N2CCN(Cc3cccnc3)CC2C)n1 (stereo unspecified)
- cytotoxicity at 70.5 h: -19.6%

SMILES: CC(=O)NCCNC(=O)CN1CCCC1Cn1nc(C)nc1C (stereo unspecified)
- cytotoxicity at 70.5 h: -16.9%

SMILES: Cc1csc(N2CCN(Cc3cscn3)CC2C)n1 (stereo unspecified)
- cytotoxicity at 70.5 h: -4.06%

SMILES: CCC(CC)NC(=O)NCc1ccnc(-n2ccnc2C)c1
- cytotoxicity at 70.5 h: -2.5%

SMILES: CS(=O)(=O)NCC1CCCN(C(=O)c2ccc3c(c2)CCCC3)C1 (stereo unspecified)
- cytotoxicity at 70.5 h: 5.26%

SMILES: CC(C)S(=O)(=O)NCC1CCCN(C(=O)c2ccc(F)cc2)C1 (stereo unspecified)
- cytotoxicity at 70.5 h: 9.08%

SMILES: Cc1nccn1-c1cc(CNC(=O)C2CCC(=O)N2)ccn1 (stereo unspecified)
- cytotoxicity at 70.5 h: -6.29%

SMILES: OCCN1CCC(CNCc2ccc(Br)cc2)CC1
- cytotoxicity at 70.5 h: -1.11%

SMILES: CC(Oc1ccccc1C(F)(F)F)C(=O)NCCCC(N)=O (stereo unspecified)
- cytotoxicity at 70.5 h: 11.1%

SMILES: COc1c(C2CCCN2C(=O)c2ccco2)c(C)nn1C (stereo unspecified)
- cytotoxicity at 70.5 h: 8.77%

SMILES: COc1c(C2CCCN2C(=O)c2cc(C3CC3)on2)c(C)nn1C (stereo unspecified)
- cytotoxicity at 70.5 h: -5.95%

SMILES: Cc1ccc(NC(=O)c2ccc(CC3CC(=O)NC3=O)cc2)cc1O (stereo unspecified)
- cytotoxicity at 70.5 h: -2.83%

SMILES: CC1CN(C)c2ccccc2CN1C(=O)c1cnsn1 (stereo unspecified)
- cytotoxicity at 70.5 h: -0.187%

SMILES: CC1CN(C)c2ccccc2CN1C(=O)c1cscn1 (stereo unspecified)
- cytotoxicity at 70.5 h: -5.75%

SMILES: O=C(c1cncc(Br)c1)N1CCCc2c(F)cc(F)cc21
- cytotoxicity at 70.5 h: -3%

SMILES: Cc1ccc2c(c1)CCCN2C(=O)c1cncc(Br)c1
- cytotoxicity at 70.5 h: 20.3%

SMILES: Cc1cc(F)c2c(c1)CCCN2C(=O)c1cncc(Br)c1
- cytotoxicity at 70.5 h: 0.703%

SMILES: O=C(CN(Cc1ccco1)C1CC1)Nc1ccc(Br)cn1
- cytotoxicity at 70.5 h: -17.6%

SMILES: Cc1cc(C(C)NC(=O)CCn2nnc3ccccc3c2=O)c(C)o1 (stereo unspecified)
- cytotoxicity at 70.5 h: -5.41%

SMILES: COCc1cccc(C(=O)N(C)Cc2ncc(C)c(OC)c2C)c1
- cytotoxicity at 70.5 h: -8.49%

SMILES: O=C1C(NCc2cccc(O)c2)CCN1Cc1ccccc1 (stereo unspecified)
- cytotoxicity at 70.5 h: -0.773%

SMILES: CCOCC(=O)NC(C#N)c1cnn(-c2ccccc2)c1 (stereo unspecified)
- cytotoxicity at 70.5 h: -9.95%

SMILES: COc1cccc(CCCn2cnnc2[S+](C)[O-])c1 (stereo unspecified)
- cytotoxicity at 70.5 h: -7.37%

SMILES: CS(=O)(=O)c1nccn1Cc1ccc(C(N)=O)cc1
- cytotoxicity at 70.5 h: -4.15%

SMILES: COc1ccc(CCn2cnnc2[S+](C)[O-])cc1 (stereo unspecified)
- cytotoxicity at 70.5 h: -10%

SMILES: O=C(c1cc[nH]n1)N(Cc1ccccc1)CC1CCC1
- cytotoxicity at 70.5 h: -9.65%

SMILES: CC(C)CN1Cc2cccc(NC(=O)Cc3ccon3)c2C1
- cytotoxicity at 70.5 h: -4.05%

SMILES: COc1ccc(CN2CCN(c3ncc(Cl)cn3)CC2)cc1
- cytotoxicity at 70.5 h: 13.2%

SMILES: O=C(CCc1ccco1)Nc1ccc(Br)cn1
- cytotoxicity at 70.5 h: 28.6%

SMILES: C[S+]([O-])c1nncn1CCc1ccccc1 (stereo unspecified)
- cytotoxicity at 70.5 h: 17.1%

SMILES: Cc1cc(CSc2nc(=O)ccn2C(C)C)no1
- cytotoxicity at 70.5 h: -3.31%

SMILES: Cc1nc(CSc2nc(=O)ccn2C(C)C)cs1
- cytotoxicity at 70.5 h: -6.6%

SMILES: Cc1c(C(=O)N(CCN(C)C)Cc2ccccn2)oc2ccccc12
- cytotoxicity at 70.5 h: -5.85%

SMILES: Cc1occc1C(=O)N(CCN(C)C)Cc1ccccn1
- cytotoxicity at 70.5 h: 15.9%

SMILES: Cc1cnn(-c2ccc(C(=O)N3CCN(C)CC3C)cc2)c1 (stereo unspecified)
- cytotoxicity at 70.5 h: -3.9%

SMILES: CSC(C)C(=O)N1CCN(CCO)CC1 (stereo unspecified)
- cytotoxicity at 70.5 h: -6.94%

SMILES: CC(C)COCCC(=O)NS(=O)(=O)c1ccc(Cl)s1
- cytotoxicity at 70.5 h: -16.7%

SMILES: CCC(Nc1nnnn1-c1ccccc1)C(=O)NCc1cccs1 (stereo unspecified)
- cytotoxicity at 70.5 h: -8.74%

SMILES: Cc1cc(C(=O)N2CCN(Cn3cc(Cl)cn3)CC2)c(C)o1
- cytotoxicity at 70.5 h: -5.19%

SMILES: CC(=O)NC(C)C(=O)Nc1ccc(OCc2cccc(F)c2)cc1C (stereo unspecified)
- cytotoxicity at 70.5 h: -9.98%

SMILES: CC(=O)N1CCN(C(=O)CNc2c(C)cccc2OC(F)F)CC1
- cytotoxicity at 70.5 h: -10.2%

SMILES: CN(C)S(=O)(=O)c1ccc(CSCC(=O)NC(C)(C)C)o1
- cytotoxicity at 70.5 h: -8.48%

SMILES: COc1ccsc1C(=O)Nc1cc(Cl)c(=O)n(C)c1
- cytotoxicity at 70.5 h: -5.8%

SMILES: CCc1ccc(C(=O)O)cc1S(=O)(=O)Nc1c(C)ccn(C)c1=O
- cytotoxicity at 70.5 h: -9.15%

SMILES: O=C(COCC(F)(F)F)NC1CCCc2cc(OC(F)F)ccc21 (stereo unspecified)
- cytotoxicity at 70.5 h: -6.74%

SMILES: CCc1ccsc1C(=O)N1CCS(=O)(=O)CC1
- cytotoxicity at 70.5 h: -8.8%

SMILES: CNC(=O)CC1CCN(C(=O)NCc2coc3ccccc23)CC1
- cytotoxicity at 70.5 h: 7.31%

SMILES: CCOc1cc(CNC(=O)C(C#N)c2nc(C)cs2)ccc1OC(F)F (stereo unspecified)
- cytotoxicity at 70.5 h: -0.465%

SMILES: CC(=O)N1CCC(Nc2cccc(OC(F)F)c2C)CC1
- cytotoxicity at 70.5 h: -7.15%

SMILES: CN1CCN(C(=O)Cc2ccc(S(=O)(=O)C(F)F)cc2)CC1
- cytotoxicity at 70.5 h: -8.11%

SMILES: CCOCCCC(=O)NS(=O)(=O)c1ccc(C)s1
- cytotoxicity at 70.5 h: -0.611%

SMILES: COCCOC1CCN(C(=O)NCc2coc3ccccc23)CC1
- cytotoxicity at 70.5 h: -6.59%

SMILES: CC(c1ccccn1)N(C)C(=O)NCCn1c(=O)oc2ccccc21 (stereo unspecified)
- cytotoxicity at 70.5 h: 6.82%

SMILES: Cc1ccc2c(c1)C(NCc1nccn1Cc1ccccc1)CCCO2 (stereo unspecified)
- cytotoxicity at 70.5 h: -13.4%

SMILES: CC(C)c1nc(CNC(C(=O)N2CCOCC2)C(C)C)no1 (stereo unspecified)
- cytotoxicity at 70.5 h: -5.23%

SMILES: Cc1nc(CNC(C(=O)N2CCOCC2)C(C)C)oc1C (stereo unspecified)
- cytotoxicity at 70.5 h: -5.87%

SMILES: CN(CCOc1ccc(Cl)cc1)Cc1ccc(S(=O)(=O)N(C)C)o1
- cytotoxicity at 70.5 h: -2.41%

SMILES: Cc1noc(C)c1CC(=O)Nc1ccn(CC(N)=O)n1
- cytotoxicity at 70.5 h: -5.49%

SMILES: O=C(Nc1ccccn1)C1CCN(Cc2cccc3c2OCCO3)CC1
- cytotoxicity at 70.5 h: 27.9%

SMILES: NC(=O)[C@@H]1Cc2ccccc2CN1S(=O)(=O)N1CCCCCC1
- cytotoxicity at 70.5 h: -4.6%

SMILES: CC(=O)N(C)c1nc(Cn2nnnc2C2CCCC2)cs1
- cytotoxicity at 70.5 h: 0.35%

SMILES: Cn1cnnc1C1CCCN(C(=O)c2cc(-c3ccccc3)on2)C1 (stereo unspecified)
- cytotoxicity at 70.5 h: -9.15%

SMILES: CS(=O)(=O)c1cccc(C(=O)NCc2nc3cc(F)ccc3[nH]2)c1
- cytotoxicity at 70.5 h: -5.23%

SMILES: CN(CC(F)(F)F)C(=O)CNC(=O)N1CCCC(C(F)(F)F)C1 (stereo unspecified)
- cytotoxicity at 70.5 h: -2.98%

SMILES: CC(NC(=O)Cc1ccccc1F)(C(N)=O)c1cccc(Cl)c1 (stereo unspecified)
- cytotoxicity at 70.5 h: -6.76%

SMILES: CCc1nc(CC)n(CC(=O)NCc2cccc(C)c2)n1
- cytotoxicity at 70.5 h: -6.53%

SMILES: CSc1[nH]c(=O)c(C(=O)N2CCCC2c2cccs2)cc1C#N (stereo unspecified)
- cytotoxicity at 70.5 h: -2.03%

SMILES: CNC(=O)CN1CCC(OCc2ccc(Cl)c(Cl)c2)CC1
- cytotoxicity at 70.5 h: 3.41%

SMILES: CC(NC(=O)Cc1cccs1)(C(N)=O)c1cccc(Cl)c1 (stereo unspecified)
- cytotoxicity at 70.5 h: 1.57%

SMILES: CC(C)c1noc(CN2CCOCC2C)n1 (stereo unspecified)
- cytotoxicity at 70.5 h: -4.78%

SMILES: CC(C)Cc1noc(CN2CCOCC2C)n1 (stereo unspecified)
- cytotoxicity at 70.5 h: -1.45%

SMILES: CCCc1noc(CN2CCOCC2C)n1 (stereo unspecified)
- cytotoxicity at 70.5 h: 20.1%

SMILES: CCc1nc(CC)n(CC(=O)NCc2ccccc2C)n1
- cytotoxicity at 70.5 h: -10.6%

SMILES: CC(O)(CNC(=O)c1cccnc1-n1cccn1)c1ccsc1 (stereo unspecified)
- cytotoxicity at 70.5 h: -7.4%

SMILES: COCCN1CCC(CNC(=O)c2cc(Cl)c[nH]2)CC1
- cytotoxicity at 70.5 h: -11.1%
